Laboratory results reported in US20240409531A1, “BENZOXAZINONE DERIVATIVES AS SELECTIVE CYTOTOXIC AGENTS” (Merck Sharp & Dohme LLC, priority 2021, published 2024).

System: PBMCs infected with VSV-G pseudotyped HIV virus (VSV-G/pNLGI-P2A-ΔEnv)
Assay: cells
Format: cell-based
Conditions: Homo sapiens, PBMC, read-out: TACK EC50 (nM)

| Compound | EC50 |
| --- | --- |
| CC(F)(F)[C@@]1(C#CC2CC2)OC(=O)Nc2cc(Cc3ccnc(N)c3C#N)c(Cl)cc21 [Example 34, (S)-2-amino-4-((6-chloro-4-(cyclopropylethynyl)-4-(1,1-difluoroethyl)-2-oxo-1,4-dihydro-2H-benzo[d][1,3]oxazin-7-yl)methyl)nicotinonitrile] | 76 nM |
| CC(F)(F)[C@@]1(C#CC2CC2)OC(=O)Nc2cc(Cc3ccnc(N)n3)c(Cl)cc21 [Example 40, (S)-7-((2-aminopyrimidin-4-yl)methyl)-6-chloro-4-(cyclopropylethynyl)-4-(1,1-difluoroethyl)-1,4-dihydro-2H-benzo[d][1,3]oxazin-2-one] | 65 nM |
| CC(F)(F)[C@@]1(C#CC2CC2)OC(=O)Nc2cc(Cn3cnccc3=O)c(F)cc21 [Example 22, (S)-4-(cyclopropylethynyl)-4-(1,1-difluoroethyl)-6-fluoro-7-((6-oxopyrimidin-1(6H)-yl)methyl)-1,4-dihydro-2H-benzo[d][1,3]oxazin-2-one] | 12 nM |
| COc1cc(=O)n(Cc2cc3c(cc2F)[C@@](C#CC2CC2)(C(C)(F)F)OC(=O)N3)cn1 [Example 24, (S)-4-(cyclopropylethynyl)-4-(1,1-difluoroethyl)-6-fluoro-7-((4-methoxy-6-oxopyrimidin-1(6H)-yl)methyl)-1,4-dihydro-2H-benzo[d][1,3]oxazin-2-one] | 9 nM |
| COc1cc(=O)n(Cc2cc3c(cc2Cl)[C@@](C#CC2CC2)(C(F)(F)F)OC(=O)N3)cn1 [Example 14, (S)-6-chloro-4-(cyclopropylethynyl)-7-((4-methoxy-6-oxopyrimidin-1(6H)-yl)methyl)-4-(trifluoromethyl)-1,4-dihydro-2H-benzo[d][1,3]oxazin-2-one] | 63 nM |
| CC(F)(F)[C@@]1(C#CC2CC2)OC(=O)Nc2cc(Cc3ccnc(N)c3C#N)ccc21 [Example 35, (S)-2-amino-4-((4-(cyclopropylethynyl)-4-(1,1-difluoroethyl)-2-oxo-1,4-dihydro-2H-benzo[d][1,3]oxazin-7-yl)methyl)nicotinonitrile] | 20 nM |
| Nc1nccn(Cc2cc3c(cc2F)[C@@](C#CC2CC2)(C(F)(F)F)OC(=O)N3)c1=O (single isomer, unassigned) [Example 1A] | 39 nM |
| CC(F)(F)[C@@]1(C#CC2CC2)OC(=O)Nc2cc(Cn3cnccc3=O)c(Cl)cc21 [Example 26, (S)-6-chloro-4-(cyclopropylethynyl)-4-(1,1-difluoroethyl)-7-((6-oxopyrimidin-1(6H)-yl)methyl)-1,4-dihydro-2H-benzo[d][1,3]oxazin-2-one] | 16 nM |
| Cc1cc(=O)n(Cc2cc3c(cc2F)[C@@](C#CC2CC2)(C(F)(F)F)OC(=O)N3)cn1 (single isomer, unassigned) [Example 6A] | 43 nM |
| Nc1cncn(Cc2cc3c(cc2F)[C@@](C#CC2CC2)(C(F)(F)F)OC(=O)N3)c1=O (single isomer, unassigned) [Example 3A] | 46 nM |
| Nc1nccn(Cc2cc3c(cc2Cl)[C@@](C#CC2CC2)(C(F)(F)F)OC(=O)N3)c1=O [Example 16, (S)-7-((3-amino-2-oxopyrazin-1(2H)-yl)methyl)-6-chloro-4-(cyclopropylethynyl)-4-(trifluoromethyl)-1,4-dihydro-2H-benzo[d][1,3]oxazin-2-one] | 113 nM |
| O=C1Nc2cc(Cn3cnc(C(F)F)cc3=O)c(Cl)cc2[C@@](C#CC2CC2)(C(F)(F)F)O1 [Example 18, (S)-6-chloro-4-(cyclopropylethynyl)-7-((4-(difluoromethyl)-6-oxopyrimidin-1(6H)-yl)methyl)-4-(trifluoromethyl)-1,4-dihydro-2H-benzo[d][1,3]oxazin-2-one] | 83 nM |
| CC(F)(F)[C@@]1(C#CC2CC2)OC(=O)Nc2cc(Cn3cncc(N)c3=O)c(F)cc21 [Example 20, (S)-7-((5-amino-6-oxopyrimidin-1(6H)-yl)methyl)-4-(cyclopropylethynyl)-4-(1,1-difluoroethyl)-6-fluoro-1,4-dihydro-2H-benzo[d][1,3]oxazin-2-one] | 11 nM |
| COCc1cc(=O)n(Cc2cc3c(cc2Cl)[C@@](C#CC2CC2)(C(C)(F)F)OC(=O)N3)cn1 [Example 27, (S)-6-chloro-4-(cyclopropylethynyl)-4-(1,1-difluoroethyl)-7-((4-(methoxymethyl)-6-oxopyrimidin-1(6H)-yl)methyl)-1,4-dihydro-2H-benzo[d][1,3]oxazin-2-one] | 16 nM |
| COc1cc(=O)n(Cc2ccc3c(c2)NC(=O)O[C@]3(C#CC2CC2)C(C)(F)F)cn1 [Example 11, (S)-4-(cyclopropylethynyl)-4-(1,1-difluoroethyl)-7-((4-methoxy-6-oxopyrimidin-1(6H)-yl)methyl)-1,4-dihydro-2H-benzo[d][1,3]oxazin-2-one] | 47 nM |
| COCc1cc(=O)n(Cc2ccc3c(c2)NC(=O)O[C@]3(C#CC2CC2)C(C)(F)F)cn1 [Example 12, (S)-4-(cyclopropylethynyl)-4-(1,1-difluoroethyl)-7-((4-(methoxymethyl)-6-oxopyrimidin-1(6H)-yl)methyl)-1,4-dihydro-2H-benzo[d][1,3]oxazin-2-one] | 68 nM |
| Cc1cc(=O)n(Cc2cc3c(cc2Cl)[C@@](C#CC2CC2)(C(F)(F)F)OC(=O)N3)cn1 [Example 17, (S)-6-chloro-4-(cyclopropylethynyl)-7-((4-methyl-6-oxopyrimidin-1(6H)-yl)methyl)-4-(trifluoromethyl)-1,4-dihydro-2H-benzo[d][1,3]oxazin-2-one] | 92 nM |
| N#Cc1c(Cc2cc3c(cc2Cl)[C@@](C#CC2CC2)(C(F)(F)F)OC(=O)N3)ccnc1N [Example 33, (S)-2-amino-4-((6-chloro-4-(cyclopropylethynyl)-2-oxo-4-(trifluoromethyl)-1,4-dihydro-2H-benzo[d][1,3]oxazin-7-yl)methyl)nicotinonitrile] | 213 nM |
| CC(F)(F)[C@@]1(C#CC2CC2)OC(=O)Nc2cc(Cc3ccnc(N)n3)ccc21 [Example 37, (S)-7-((2-aminopyrimidin-4-yl)methyl)-4-(cyclopropylethynyl)-4-(1.1-difluoroethyl)-1.4-dihydro-2H-benzo[d][1.3]oxazin-2-one] | 43 nM |
| Nc1nccc(Cc2cc3c(cc2Cl)[C@@](C#CC2CC2)(C(F)(F)F)OC(=O)N3)n1 [Example 38, (S)-7-((2-aminopyrimidin-4-yl)methyl)-6-chloro-4-(cyclopropylethynyl)-4-(trifluoromethyl)-1,4-dihydro-2H-benzo[d][1,3]oxazin-2-one] | 149 nM |
| CC(F)(F)[C@@]1(C#CC2CC2)OC(=O)Nc2cc(Cn3ccnc(N)c3=O)c(Cl)cc21 [Example 25, (S)-7-((3-amino-2-oxopyrazin-1(2H)-yl)methyl)-6-chloro-4-(cyclopropylethynyl)-4-(1,1-difluoroethyl)-1,4-dihydro-2H-benzo[d][1,3]oxazin-2-one] | 37 nM |
| CC(F)(F)[C@@]1(C#CC2CC2)OC(=O)Nc2cc(Cn3cnccc3=O)ccc21 [Example 9, (S)-4-(cyclopropylethynyl)-4-(1,1-difluoroethyl)-7-((6-oxopyrimidin-1(6H)-yl)methyl)-1,4-dihydro-2H-benzo[d][1,3]oxazin-2-one] | 90 nM |
| Cc1cc(=O)n(Cc2cc3c(cc2Cl)[C@@](C#CC2CC2)(C(C)(F)F)OC(=O)N3)cn1 [Example 28, (S)-6-chloro-4-(cyclopropylethynyl)-4-(1,1-difluoroethyl)-7-((4-methyl-6-oxopyrimidin-1(6H)-yl)methyl)-1,4-dihydro-2H-benzo[d][1,3]oxazin-2-one] | 15 nM |
| O=C1Nc2cc(Cn3cnc(C(F)F)cc3=O)c(F)cc2[C@@](C#CC2CC2)(C(F)(F)F)O1 (single isomer, unassigned) [Example 7A] | 45 nM |
| CC(F)(F)[C@@]1(C#CC2CC2)OC(=O)Nc2cc(Cc3ccnc(N)c3C#N)c(F)cc21 [Example 36, (S)-2-amino-4-((4-(cyclopropylethynyl)-4-(1,1-difluoroethyl)-6-fluoro-2-oxo-1,4-dihydro-2H-benzo[d][1,3]oxazin-7-yl)methyl)nicotinonitrile] | 18 nM |
| N#Cc1c(Cc2cc3c(cc2F)[C@@](C#CC2CC2)(C(F)(F)F)OC(=O)N3)ccnc1N (single isomer, unassigned) [Example 32A] | 111 nM |
